Like-named read-outs stand apart in the source and are kept apart here.

This is an account of results in patent EP1420018A1, “Pyrido[1,2-a]benzimidazole derivatives useful in treating central nervous system disorders” (Ortho-McNeil Pharmaceutical, Inc., priority 1996, dated 1998).

The subject of experiment [1] is metrazol-induced convulsions. Put plainly: Suppression of Metrazol-Induced Convulsions in Adult Male Mice. The note with it: for ED50: Mus musculus, ip. Type of experiment: in vivo. The procedure: Assay to Determine the Suppression of Metrazol-Induced Convulsions in Adult Male Mice
Male CD1 mice, were fasted at least 16 hours, were divided into equal groups and test compounds or vehicle were administered parenterally. Water was not withheld except during the period of observations. […] Metrazol was dissolved in 0.9% sodium chloride solution, and its dose volume was 10 ml/kg. Animals were housed individually for observation of clonic convulsions, tonic convulsions and death for a period of 30 min. […] The biological assay was considered to be valid if the effects of a known anticonvulsant (positive control) were detected, within the same experiment. Activity was reported as percent reduction of clonic convulsions from the vehicle group.

Experiment [2] concerns the target benzodiazepine site of the GABA-A receptor. Put plainly: Benzodiazepine Receptor Binding Assay (inhibition of 3H-flunitrazepam binding). The note with it: read-out: GABAA Receptor Binding IC50.
Experiment [3] concerns Anxiety in the Adult Male Rat. Put plainly: Suppression of Anxiety in the Adult Male Rat (rat conflict test). The experiment is classed as in vivo, rats. The note with it: for minimal effective dose: Rattus norvegicus. As for the experimental part: Assay to Measure the Suppression of Anxiety in the Adult Male Rat
Male rats were deprived of water for 48 hours and were deprived of food for 24 hours prior to testing. After the first 24 hours of water deprivation, they were placed in the conflict chamber for a training period; wherein, they were allowed 200 unpunished licks from a bottle containing tap water. The experiment was run the next day. At the expected time of peak activity, the animals were placed in the chamber and allowed access to tap water. […] Their first lick initiates a 3-min test session. Subsequently, every 20th lick was punished by a 0.2-s shock delivered via the stainless-steel drinking-tube.
The Wilcoxon rank-sum test (Mann-Whitney U-test) was used to test for an increase (p<0.05, 1-tailed) in the median number of shocks in drug-treated groups, compared to a concurrently run vehicle-treated group. The biological assay is considered to be valid if the effects of a known anxiolytic (positive control) are detected, within the same experiment.

Experiment [4] relates to metrazol-induced convulsions. Put plainly: Suppression of Metrazol-Induced Convulsions in Adult Male Mice. Type of experiment: in vivo. The note with it: for ED50: Mus musculus, po.
Where [5] appears, read: inhibition of 3H-flunitrazepam (ca. 3 nM) binding to membranes, 25°C, over 10,000 = not active.
Where [6] appears, read: po, minimum effective dose, increase in shocks tolerated, >10 = active dose not determined, read-out: Rat Conflict (MED, mg/kg) po.
Where [7] appears, read: block of clonic convulsions, male CD1 mice, >30 = active dose not determined.
The mark [8] stands for this setting: ip, rat, ip, read-out: Rat Conflict (MED, mg/kg) ip.
The mark [9] stands for this setting: po, rat, po, read-out: Rat Conflict (MED, mg/kg) po.

With “7-Fluoro-1,2-dihydro-5-[2-(methoxy)ethoxymethyl]-3-oxo-N-(2-fluorophenyl)pyrido[1,2-a]benzimidazole-4-carboxamide [Compound 160]”, the “Mouse Metrazol (ED50, mg/kg) ip” value in experiment [1] (mouse) is on record as below 1 mg/kg. Further, in experiment [2], the half-maximal inhibitory concentration (IC50) (usually the concentration needed to halve the response being measured) came to 0.48 nM. Further, the “Rat Conflict (MED, mg/kg) ip” value in experiment [3] (rat, ip) is given as below 10 mg/kg. The “Rat Conflict (MED, mg/kg) po” value in experiment [3] (rat, po) is given as 1 mg/kg. For the same compound, the “Mouse Metrazol (ED50, mg/kg) po” value in experiment [4] (mouse) is 0.3 mg/kg.
As to `O=C(CN1C2=C(C(=O)Nc3ccccc3F)C(=O)CCN2c2ccc(F)cc21)NCCc1c[nH]cn1` [Compound 32], in experiment [2] (setting [5]), the IC50 came to 3.56 nM. Further, the minimal effective dose in experiment [3] (setting [6]) was above 3 mg/kg.
For `CN=C(NCCN1C2=C(C(=O)Nc3ccccc3F)C(=O)CCN2c2ccc(F)cc21)N1CCCC1` [Compound 33], in that order: 54 nM and above 3 mg/kg.
For `COc1cccc2c1N(CCN(C)C)C1=C(C(=O)Nc3nccs3)C(=O)CCN12` [Compound 34], in experiment [2] (setting [5]), the IC50 was 1000 nM. In experiment [3] (setting [6]), the minimal effective dose is above 3 mg/kg.
For `Cc1ccc(NC(=O)C2=C3N(CCNS(=O)(=O)C(F)(F)F)c4cc(F)ccc4N3CCC2=O)s1` [Compound 35], in that order: 46.9 nM and above 10 mg/kg.
With `N#CCCNC(=O)CN1C2=C(C(=O)Nc3ccccc3F)C(=O)CCN2c2ccc(F)cc21` [Compound 36, 7-Fluoro-1,2-dihydro-5-[N-(2-cyanoethyl)-2-acetamido]-3-oxo-N-(2-fluorophenyl)pyrido[1,2-a]benzimidazole-4-carboxamide], the ED50 (as a rule, the midpoint of the dose-response relation) was above 1 mg/kg in experiment [1] (setting [7]) and above 30 mg/kg in experiment [4] (setting [7]). The IC50 in experiment [2] (setting [5]) was found to be 3.3 nM. In addition, the minimal effective dose in experiment [3] (setting [6]) was above 10 mg/kg.
For `CN(CCN1C2=C(C(=O)Nc3ccccc3F)C(=O)CCN2c2ccc(F)cc21)S(=O)(=O)C(F)(F)F` [Compound 37] the same measures were above 1 mg/kg, above 30 mg/kg, 18.3 nM and above 10 mg/kg.
For `COCCN(C)CCN1C2=C(C(=O)Nc3ccccc3F)C(=O)CCN2c2ccc(F)cc21` [Compound 38, 7-Fluoro-1,2-dihydro-5-[N-(2-(methoxy)ethyl)-2-(methylamino)ethyl]-3-oxo-N-(2-fluorophenyl)pyrido[1,2-a]-benzimidazole-4-carboxamide] the same measures were below 1 mg/kg, 1 mg/kg, 4.06 nM and 3 mg/kg.
Regarding `O=C1CCN2C(=C1C(=O)Nc1ccccc1F)N(CCNS(=O)(=O)c1ccc(C(F)(F)F)cc1)c1cc(F)ccc12` [Compound 39], the ED50 in experiment [1] (setting [7]) was above 1 mg/kg; in experiment [4] (setting [7]), above 3 mg/kg. Besides, the IC50 in experiment [2] (setting [5]) came out at 122 nM. Moreover, the minimal effective dose in experiment [3] (setting [6]) was above 10 mg/kg.
Consider `CN(C)C=NCCN1C2=C(C(=O)Nc3ccccc3F)C(=O)CCN2c2ccc(F)cc21` [Compound 40], for which the ED50 in experiment [1] (setting [7]) was below 1 mg/kg; in experiment [4] (setting [7]), around 30 mg/kg. Moreover, the IC50 in experiment [2] (setting [5]) turned out to be 35 nM. The minimal effective dose in experiment [3] (setting [6]) was found to be 10 mg/kg.
For `O=C(CN1C2=C(C(=O)Nc3c(F)cccc3F)C(=O)CCN2c2ccc(F)cc21)Nc1ccccc1F` [Compound 60], the results for the ED50 in experiment [1] (mouse) and in experiment [4] (mouse) were 10 mg/kg and above 30 mg/kg, respectively. The IC50 in experiment [2] worked out at 21.4 nM.
For `O=C1CCN2C(=C1C(=O)Nc1c(F)cccc1F)N(CCN(Cc1ccccc1)Cc1ccccc1)c1cc(F)ccc12` [Compound 63, 7-Fluoro-1,2-dihydro-5-[N,N-di(benzyl)-2-aminoethyl]-3-oxo-N-(2,6-difluorophenyl)pyrido[1,2-a]benzimidazole-4-carboxamide], the IC50 in experiment [2] amounted to 15.5 nM. Moreover, the minimal effective dose in experiment [3] (setting [8]) is above 10 mg/kg.
As to `CCOCN1C2=C(C(=O)Nc3ccc(OCc4ccccc4)cc3F)C(=O)CCN2c2ccc(F)cc21` [Compound 92], the IC50 in experiment [2] stood at 3.33 nM. Moreover, in experiment [3] (setting [9]), the minimal effective dose is above 3 mg/kg.
`CCOCN1C2=C(C(=O)Nc3ccc(OCCOC)cc3F)C(=O)CCN2c2ccc(F)cc21` [Compound 93]: in experiment [2], the IC50 worked out at 1.8 nM. For the same compound, in experiment [3] (setting [9]), the minimal effective dose is at most 0.3 mg/kg.
Consider `O=C1CCN2C(=C1C(=O)Nc1ccccc1F)N(CCO)c1c(O)cccc12` [Compound 94, 6-Hydroxy-1,2-dihydro-5-(2-hydroxyethyl)-3-oxo-N-(2-fluorophenyl)pyrido[1,2-a]benzimidazole-4-carboxamide], for which the IC50 in experiment [2] stood at 2.38 nM. For the same compound, in experiment [3] (setting [9]), the minimal effective dose is above 10 mg/kg.
In the case of `CCOCN1C2=C(C(=O)Nc3ccc(OC(C)C)cc3F)C(=O)CCN2c2ccc(F)cc21` [Compound 95], the IC50 in experiment [2] came to 2.5 nM. Also, the minimal effective dose in experiment [3] (setting [9]) is at most 3 mg/kg.
For `COCCN1C2=C(C(=O)Nc3ccccc3F)C(=O)CCN2c2cccc(OC)c21` [Compound 96], in that order: 1.8 nM and above 10 mg/kg.
`CCOCN1C2=C(C(=O)Nc3ccc(OC)cc3F)C(=O)CCN2c2ccc(F)cc21` [Compound 97, 7-Fluoro-1,2-dihydro-5-ethoxymethyl-3-oxo-N-(2-fluoro-4-methoxyphenyl)pyrido[1,2-a]benzimidazole-4-carboxamide]: in experiment [2], the IC50 was found to be 0.41 nM. Moreover, the minimal effective dose in experiment [3] (setting [8]) is at most 0.1 mg/kg; in experiment [3] (setting [9]), 0.03 mg/kg. The same compound yielded an ED50 in experiment [4] (mouse) of at most 0.3 mg/kg.
For the compound `COCCN1C2=C(C(=O)Nc3ncc(C)s3)C(=O)CCN2c2ccccc21` [Compound 98], the IC50 in experiment [2] worked out at 11 nM. The minimal effective dose in experiment [3] (setting [9]) turned out to be 3 mg/kg.
As to `CCOCN1C2=C(C(=O)Nc3ccc(O)cc3F)C(=O)CCN2c2ccc(F)cc21` [Compound 99, 7-Fluoro-1,2-dihydro-5·ethoxymethyl·3-oxo-N-(2-fluoro-4-hydroxyphenyl)pyrido[1,2-a]benzimidazale-4-carboxamide], the IC50 in experiment [2] was 1.38 nM. Moreover, the minimal effective dose was at most 1 mg/kg in experiment [3] (setting [8]) and 1 to 3 mg/kg in experiment [3] (setting [9]). Besides, in experiment [4] (mouse), the ED50 fell in the range of 0.3 to 3 mg/kg.
On to `COCCN1C2=C(C(=O)Nc3ccccc3F)C(=O)CCN2c2c(OCc3ccccc3)cccc21` [Compound 109], for which, in experiment [2], the IC50 was above 1000 nM. In experiment [3] (setting [9]), the minimal effective dose is above 10 mg/kg.
On to `CCOCN1C2=C(C(=O)Nc3ccccc3F)C(=O)CCN2c2cc(F)cc(F)c21` [Compound 112], for which, in experiment [2], the IC50 turned out to be 13.3 nM. In addition, the minimal effective dose in experiment [3] (setting [9]) is above 10 mg/kg.
Consider `CCOCN1C2=C(C(=O)Nc3ccc(F)cc3F)C(=O)CCN2c2cc(F)cc(F)c21` [Compound 113], for which the IC50 in experiment [2] is 44.3 nM. Also, the minimal effective dose in experiment [3] (setting [9]) was above 10 mg/kg.
Turning to `CCOCN1C2=C(C(=O)Nc3cc4ccccc4s3)C(=O)CCN2c2ccc(F)cc21` [Compound 115], the ED50 in experiment [1] (mouse) was above 1 mg/kg; in experiment [4] (mouse) it was above 30 mg/kg. The IC50 in experiment [2] is 53.5 nM.
For `CCOCCN1C2=C(C(=O)Nc3cc4ccccc4s3)C(=O)CCN2c2ccc(F)cc21` [Compound 117], in that order: at most 1 mg/kg, above 30 mg/kg and 106 nM.
As to `CC(=O)OCCN1C2=C(C(=O)Nc3ccccc3F)C(=O)CCN2c2ccc(F)cc21` [Compound 119, 7-Fluoro-1,2-dihydro-5-(2-acetoxyethyl)-3-oxo-N-(2-fluorophenyl)pyrido[1,2-a]benzimidazole-4-carboxamide], the values for the ED50 in experiment [1] (mouse) and in experiment [4] (mouse) were below 1 mg/kg and at most 3 mg/kg, respectively. Moreover, the minimal effective dose in experiment [3] (setting [9]) is 3 mg/kg.
For `CCOCCN1C2=C(C(=O)Nc3ccc(Cl)s3)C(=O)CCN2c2ccc(F)cc21` [Compound 132], in experiment [2], the IC50 came out at 3.13 nM. In experiment [3] (setting [9]), the minimal effective dose was above 3 mg/kg.
For `CCOCN1C2=C(C(=O)Nc3ccc(C)s3)C(=O)CCN2c2ccc(F)cc21` [Compound 133], in that order: 0.68 nM and above 3 mg/kg.
Consider `O=C1CCN2C(=C1C(=O)Nc1ccccc1F)N(CC(O)CO)c1cc(F)ccc12` (stereo not drawn) [Compound 162, 7-Fluoro-1,2-dihydro-5-[2,3-dihydroxypropyl]-3-oxo-N-(2-fluorophenyl)pyrido[1,2-a]benzimidazole-4-carboxamide], for which the ED50 in experiment [1] (mouse) is 3 mg/kg; in experiment [4] (mouse) it was at most 30 mg/kg. Besides, the minimal effective dose was at most 10 mg/kg in experiment [3] (setting [8]) and above 10 mg/kg in experiment [3] (setting [9]).
For the compound `C[S+]([O-])CCN1C2=C(C(=O)Nc3ccccc3F)C(=O)CCN2c2ccc(F)cc21` (stereo not drawn) [Compound 183, 7-Fluoro-1,2-dihydro-5-[2-(methylsulfoxy)ethyl]-3-oxo-N-(2-fluorophenyl)pyrido[1,2-a]benzimidazole-4-carboxamide], the figures for the ED50 in experiment [1] (setting [7]) and in experiment [4] (setting [7]) were above 1 mg/kg and around 10 mg/kg, respectively. Also, the minimal effective dose in experiment [3] (setting [6]) was 10 mg/kg.
